In US20100010025A1, “Pyrimidine Derivatives” (Norvartis AG, priority 2006, published 2010):

Legend:
[1] = target: T1, JAK-2 (Homo sapiens, UniProt O60674); assay: JAK kinase assay (JAK-2), time-resolved fluorescence energy transfer or radiometric filter-binding/flash plate; type: biochemical; conditions: GST fusion of JAK-2 kinase domain (JH-1)
T1 construct: contain the kinase domain (JH-1 domain) of the full length proteins and are used as GST fusion proteins
Experimental: (§1) JAK-2 or JAK-3 enzymatic activity is determined using a time-resolved fluorescence energy transfer technology. The phosphorylation of a synthetic biotinylated peptide substrate (GGEEEYFELVKKKK) by either JAK-2 or JAK-3 in the presence of ATP is quantified using Europium labeled anti phosphotyrosine antibody and Streptavidin-Allophycocyanin Both JAK-2 and JAK-3 enzymes used in these assays contain the kinase domain (JH-1 domain) of the full length proteins and are used as GST fusion proteins.
(§2) Inhibitors are dissolved in DMSO. Dilutions are prepared in 90% DMSO followed by additional dilutions steps as required to perform a 8-point concentration-response.
(§3) The reaction mix consists of 5 μL of diluted compound, 10 μl of assay buffer and 5 μl of enzyme dilution. After incubation for 60 minutes at room temperature the reaction is stopped by the addition of EDTA. For detection of the product anti-phosphotyrosine antibody and Streptavidin-APC are added and after 60 minutes the samples are measured in an EnVision 2102 Multilabel Reader with excitation wavelength of 320 nm and emission at 665 nm. […] Membranes are counted after drying at ambient temperature, mounting in Packard TopCount 96-well frame, and addition of 10 μl/well of Microscint. The plates are eventually sealed and counted in a microplate scintillation counter (TopCount NXT, TopCount NXT HTS, PerkinElmer, Brussels, Belgium).

[2] = target: T2, JAK-3 (Homo sapiens, UniProt P52333); assay: JAK kinase assay (JAK-3), time-resolved fluorescence energy transfer or radiometric filter-binding/flash plate; type: biochemical; conditions: GST fusion of JAK-3 kinase domain (JH-1)
T2 construct: contain the kinase domain (JH-1 domain) of the full length proteins and are used as GST fusion proteins
T2 sequence (P52333 822-1111 limits assumed, species assumed): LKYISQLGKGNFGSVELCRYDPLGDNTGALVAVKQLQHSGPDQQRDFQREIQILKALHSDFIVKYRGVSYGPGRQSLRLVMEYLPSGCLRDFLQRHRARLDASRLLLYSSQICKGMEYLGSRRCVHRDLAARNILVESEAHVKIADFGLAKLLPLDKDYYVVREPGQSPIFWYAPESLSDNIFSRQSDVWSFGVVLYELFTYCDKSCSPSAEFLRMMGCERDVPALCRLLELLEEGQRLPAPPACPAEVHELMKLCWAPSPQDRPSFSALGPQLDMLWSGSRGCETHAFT
Experimental: as §1, §2, §3

T1 sequence (O60674 849-1124 limits assumed, species assumed): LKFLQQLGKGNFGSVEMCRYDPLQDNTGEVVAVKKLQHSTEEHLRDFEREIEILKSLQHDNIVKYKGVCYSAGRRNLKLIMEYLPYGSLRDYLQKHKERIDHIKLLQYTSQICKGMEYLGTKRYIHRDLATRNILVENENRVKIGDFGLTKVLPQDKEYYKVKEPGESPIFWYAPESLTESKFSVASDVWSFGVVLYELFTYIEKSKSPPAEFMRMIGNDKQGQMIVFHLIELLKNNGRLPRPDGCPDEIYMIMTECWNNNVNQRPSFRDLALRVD

For `CNS(=O)(=O)c1ccccc1Nc1nc(Nc2cc(OC)ccc2F)ncc1C(N)=O` [Example 5, 2-(2-Fluoro-5-methoxy-phenylamino)-4-(2-methylsulfamoyl-phenylamino)-pyrimidine-5-carboxylic acid amide], which IC50 [1] is on record?
The IC50 was 0.179 µM.

`COc1ccc(F)c(Nc2ncc(C(N)=O)c(Nc3ccccc3N(C)S(C)(=O)=O)n2)c1` [Example 6, 2-(2-Fluoro-5-methoxy-phenylamino)-4-[2-(methanesulfonyl-methyl-amino)-phenylamino]-pyrimidine-5-carboxylic acid amide] was tested. Which IC50 [2] did it give?
The IC50 was 0.026 µM.
